Reference: patent publication US8748481B2, “Method for treating gastrointestinal disorder” (Sucampo AG, priority 2004, dated 2014)

Test: Serum electrolyte balance, open-label 24/48-week safety study (Example 1)
Format: in vivo, human
Method: Multi-center, open-label study was performed to evaluate the safety of 48 μg of Compound A (13,14-dihydro-15-keto-16,16-difluoro-PGE1) (24 μg of Compound A b.i.d) when administered daily for 24 weeks (6 months) or 48 weeks (12 months) to subjects with occasional constipation. […] After 14-day drug-free washout period, they received 48 μg of Compound A (24 μg of Compound A b.i.d) orally for 48 weeks.
Sodium, potassium, chloride, calcium, magnesium and phosphorus ion concentrations in serum of patients (n=299) were measured before, and at 6, 12, 18, 24, 30, 36, 48 and 50 weeks after the start of the Compound A treatment.
The laboratory standard values for the panel of electrolytes were taken from the normal reference ranges for the central laboratory.

[1] = Week 50 after start of 48-week treatment

## CCCCC(F)(F)C(=O)CCC1C(O)CC(=O)C1CCCCCCC(=O)O (stereo not shown) [Compound A, 13,14-dihydro-15-keto-16,16-difluoro-PGE1]
48 μg/day, long-term administration up to 48 weeks
  Effect on sodium, potassium, chloride, calcium, magnesium and phosphorus ion concentration in serum: no effect
Week 0 (before treatment)
  Mean serum Calcium: 9.61 mg/dL
  Mean serum Chloride: 103.08 mmol/L
  Mean serum Magnesium: 2.18 mg/dL
  Mean serum Phosphorus: 3.65 mg/dL
  Mean serum Potassium: 4.28 mmol/L
  Mean serum Sodium: 141.00 mmol/L
Week 6, 48 μg/day oral
  Mean serum Calcium: 9.90 mg/dL
  Mean serum Chloride: 103.00 mmol/L
  Mean serum Magnesium: 2.23 mg/dL
  Mean serum Phosphorus: 3.20 mg/dL
  Mean serum Potassium: 4.28 mmol/L
  Mean serum Sodium: 142.25 mmol/L
Week 12, 48 μg/day oral
  Mean serum Calcium: 9.71 mg/dL
  Mean serum Chloride: 103.08 mmol/L
  Mean serum Magnesium: 2.24 mg/dL
  Mean serum Phosphorus: 3.57 mg/dL
  Mean serum Potassium: 4.20 mmol/L
  Mean serum Sodium: 139.78 mmol/L
Week 18, 48 μg/day oral
  Mean serum Calcium: 9.30 mg/dL
  Mean serum Chloride: 105.50 mmol/L
  Mean serum Magnesium: 2.35 mg/dL
  Mean serum Phosphorus: 3.55 mg/dL
  Mean serum Potassium: 4.40 mmol/L
  Mean serum Sodium: 141.50 mmol/L
Week 24, 48 μg/day oral
  Mean serum Calcium: 9.77 mg/dL
  Mean serum Chloride: 102.56 mmol/L
  Mean serum Magnesium: 2.21 mg/dL
  Mean serum Phosphorus: 3.61 mg/dL
  Mean serum Potassium: 4.19 mmol/L
  Mean serum Sodium: 139.21 mmol/L
Week 30, 48 μg/day oral
  Mean serum Calcium: 9.10 mg/dL
  Mean serum Chloride: 100.00 mmol/L
  Mean serum Magnesium: 2.30 mg/dL
  Mean serum Phosphorus: 2.50 mg/dL
  Mean serum Potassium: 4.30 mmol/L
  Mean serum Sodium: 136.00 mmol/L
Week 36, 48 μg/day oral
  Mean serum Calcium: 9.67 mg/dL
  Mean serum Chloride: 102.51 mmol/L
  Mean serum Magnesium: 2.19 mg/dL
  Mean serum Phosphorus: 3.58 mg/dL
  Mean serum Potassium: 4.18 mmol/L
  Mean serum Sodium: 138.94 mmol/L
Week 48, 48 μg/day oral
  Mean serum Calcium: 9.66 mg/dL
  Mean serum Chloride: 102.88 mmol/L
  Mean serum Magnesium: 2.14 mg/dL
  Mean serum Phosphorus: 3.50 mg/dL
  Mean serum Potassium: 4.20 mmol/L
  Mean serum Sodium: 139.59 mmol/L
[1]
  Mean serum Calcium: 9.47 mg/dL
  Mean serum Chloride: 102.67 mmol/L
  Mean serum Magnesium: 2.31 mg/dL
  Mean serum Phosphorus: 3.54 mg/dL
  Mean serum Potassium: 4.49 mmol/L
  Mean serum Sodium: 139.11 mmol/L
